Data on one compound can be found in patent publication US4624950A, “Method for treating atherosclerosis hyperlipidema, lipid deposition on arterial walls, or raising the ratio of high density lipoprotein cholesterol to total cholesterol in serum” (Nissan Chemical Industries Ltd., priority 1983, dated 1986).

Where two headings read alike, the source gives them in different places. Some results are limits rather than exact numbers.

For data set [1], the system named is emulsion-induced hyperlipidemic rats. The data set is described as follows: Antihyperlipidemic activity in emulsion-induced hyperlipidemic rats (Test 1). The data set is classed as in vivo, rat (male S.D.). The conditions noted are these: 300 mg/kg/day p.o., 3 days. The protocol: The daily dose of the compound of the formula I is from 0.01 to 3.0 g, preferably from 0.1 to 1.5 g, for an adult. It is administered from once to three times per day. The dose may of course be varied depending upon the age, the weight or the condition of illness of the patient. Now, the usefulness of the compound of the formula I as an antiatherosclerotic agent will be shown by tests. In the following tests, the fractionation of lipoproteins was conducted by a dextran sulfate-MgCl2 precipitation method.
(§1) Cholesterol in serum was measured by means of a cholesterol measuring kit (Cholesterol C-Test Wako, manufactured by Wako Junyaku Co., Ltd.), and cholesterol in HDL was measured by means of NC Hi-Set, manufactured by Nippon Chemiphar Co., Ltd. The quantitative analysis of triglyceride was conducted by means of a triglyceride measuring kit (Triglyceride C-II-Test Wako, manufactured by Wako Junyaku Co., Ltd.).
(§2) Further, the change rate in the following Tables, was calculated by the following equation.
(§3) Change rate(%)=(A-B/A)×100
(§4) where A is the amount of serum lipids (mg/dl) of the control group, and B is the amount of serum lipids (mg/dl) of the group to which the therapeutic agent was administered.
The antihyperlipidemic activity in emulsion-induced hyperlipidemic rats
Male S.D. rats weighing 80-90 g (4 weeks old) were used. They were divided into groups of 5 to 6 rats each. The test compounds suspended in 0.5% CMC-Na(carboxymethyl cellulose sodium salt) were given to the rats in a daily dose of 4 ml/kg via stomach tube every 10:00 a.m. After 30 min., lipids emulsion having the following composition was orally given to the rats in an amount of 2.5 ml per rat. During the experimental period of 3 days, the rats were fed on a standard commercial diet and water ad libitum. […] The total cholesterol and triglyceride, and HDL cholesterol were measured.

In a further data set the test system is normal rats. Kind of data set: Activities against serum lipid, degree of hepatomegaly and GOT/GPT in normal rats (Test 5). The data set is classed as in vivo, rat (male S.D.). To be noted: 300 mg/kg/day, seven days. How it is done:
It is administered from once to three times per day. The dose may of course be varied depending upon the age, the weight or the condition of illness of the patient. […] In the following tests, the fractionation of lipoproteins was conducted by a dextran sulfate-MgCl2 precipitation method.
as §1, §2, §3, §4
The activities against serum lipid, the degree of hepatomegaly and the hepatic drug metabolizing systems of normal rats
Male S.D. rats (6 weeks old) were divided into groups of 5 rats each. The test compounds suspended in 5% gum arabic were given to the rats once a day for seven days in a daily dose of 300 mg/kg. Then, the rats were fasted for one day, blood samples were taken, and the total cholesterol, triglyceride, HDL-cholesterol in the serum were quantitatively analyzed. Further, the liver weight was measured, and the degree of hepatomegaly was determined by comparing the weight ratio per 100 g of the body weight with that of the control group. Furthermore, GOT and GPT values were measured, and the activities of cytochrome P-450 and glutathione related enzymes were also measured. These values were compared with those of the control groups to investigate any abnormality.

The test system of data set [2] is Escherichia coli (WP2UVrA). The conditions noted are these: up to 5000 μg/Plate, absence or presence of S-9 mix of rat liver. How it is done: The mutagenicity was tested by using Escherichia coli (WP2UVrA) and Salmonella (TA98, TA100, TA1535 and TA1538) in the absence or presence of a drug metabolizing enzymes S-9 mix of rat liver.
Data set [3] is described as follows: Acute toxicity test (Test 7). To be noted: mouse, in vivo, mortality after seven days, read-out: Acute toxicity: dose up to which no toxicity was shown. The protocol: The test compounds suspended in 0.5% CMC-Na were administered p.o. or injected i.p. to male ddY mice. The acute toxicity was dertermined based on the mortality after seven days.

Take `CN1C(=S)SC(c2ccccc2)N(C)C1c1ccccc1` (stereo not shown) [Compound of the formula I, 3,5-dimethyl-4,6-diphenyl-tetrahydro-2H-1,3,5-thiadiazine-2-thione]: in data set [1], the “Serum lipid, HDL-Chol” value worked out at 22.1 mg/dL; the “Serum lipid, TG” value was 97.4 mg/dL; the “Serum lipid, Total Chol” value worked out at 145 mg/dL. Further, in data set [1] (vs control), the “Change rate, HDL-Chol” value was “+80.6%”; the “Change rate, TG” value is given as -36%; the “Change rate, Total Chol” value is given as -45.0%. In addition, in the data set on normal rats, the “Hepatic insufficiency from GOT and GPT values (in words)” value is recorded as “No hepatic insufficiency was observed”; the “Hepatomegaly (in words)” value is “no substantial hepatomegaly”; the “LDL-cholesterol reduction (in words)” value was “ramarkably reduces LDL-cholesterol”; the “Serum lipid, HDL-Chol” value turned out to be 29.2 mg/dL. Moreover, in the data set with normal rats, the “Serum lipid, TG” value was 37.5 mg/dL and the “Serum lipid, Total-Chol” value was found to be 39.2 mg/dL. Also, in the data set with normal rats (vs control), the “Change rate, HDL-Chol” value is -1.0%; the “Change rate, TG” value is recorded as -21.0%; the “Change rate, Total-Chol” value is -16.2%; the Degree of hepatomegaly result was “+7.0%”. Besides, the Mutagenicity result in data set [2] is recorded as “did not show any mutagenicity”. Further, the NOAEL at 168 h in data set [3] (ip, abdominal (i.p.) administration) was not below 4000 mg/kg. In data set [3] (oral administration), the NOAEL at 168 h was not below 8000 mg/kg.
